Assay results taken from the supplement of paper PMC12137928.
Counter-ions that a name gives are not always drawn.

System: HCT116
Settings: 72 h
In short: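 HCT116 cells went into 1536-well plates at 250 per well. CellTiter-Glo luminescence was expressed relative to vehicle (0%) and positive control (-100%) and then pattern-corrected. Both IC50 and maximal efficacy were taken from four-parameter Hill fits.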

| Compound | IC50 cell viability (ICRF193 0 nM) | IC50 cell viability (ICRF193 200 nM) |
| --- | --- | --- |
| COc1cc2c(cc1OC)[C@H]1C[C@@H](OC(=O)[C@@H](N)C(C)C)[C@H](CC(C)C)CN1CC2 [Valbenazine] | > 45.8 µM | > 45.8 µM |
| Cc1onc(-c2ccccc2)c1-c1ccc(S(N)(=O)=O)cc1 [Valdecoxib] | > 45.8 µM | > 45.8 µM |
| CC(C)[C@H](N)C(=O)OCC(CO)OCn1cnc2c(=O)[nH]c(N)nc21 (some centres not stated) [Valganciclovir·HCl] | > 45.8 µM | > 45.8 µM |
| CCCC(CCC)C(=O)O [Valproic acid sodium salt] | > 45.8 µM | > 45.8 µM |
| CN[C@H](CC(C)C)C(=O)N[C@H]1C(=O)N[C@@H](CC(N)=O)C(=O)N[C@H]2C(=O)N[C@H]3C(=O)N[C@H](C(=O)N[C@H](C(=O)O)c4cc(O)cc(O)c4-c4cc3ccc4O)[C@H](O)c3ccc(c(Cl)c3)Oc3cc2cc(c3O[C@@H]2O[C@H](CO)[C@@H](O)[C@H](O)[C@H]2O[C@H]2C[C@](C)(N)[C@H](O)[C@H](C)O2)Oc2ccc(cc2Cl)[C@H]1O [Vancomycin hydrochloride] | > 45.8 µM | > 45.8 µM |
| COc1cc2/c(=N/c3ccc(Br)cc3F)nc[nH]c2cc1OCC1CCN(C)CC1 [Vandetanib] | > 45.8 µM | > 45.8 µM |
| O=C(O)CC/C=C\CC[C@@H]1[C@@H](N2CCCCC2)[C@@H](O)C[C@@H]1OCc1ccc(-c2ccccc2)cc1 [Vapiprost hydrochloride] | > 45.8 µM | > 45.8 µM |
| CCCc1nc(C)c2c(=O)nc(-c3cc(S(=O)(=O)N4CCN(CC)CC4)ccc3OCC)[nH]n12 [Vardenafil] | > 45.8 µM | > 45.8 µM |
| CCCC[C@@H](O)/C=C(C)/C=C/C=C/C(=O)N1CCCC1=O [Variotin] | > 45.8 µM | > 45.8 µM |
| CC(=O)O[C@H]1C[C@@H]2CC[C@@H]3[C@H](CC[C@@]4(C)[C@H]3C[C@H]([N+]3(C)CCCCC3)[C@@H]4OC(C)=O)[C@@]2(C)C[C@@H]1N1CCCCC1 [Vecuronium bromide] | > 45.8 µM | > 45.8 µM |
| COC[C@H]1C[C@@H](c2nc(-c3ccc4c(c3)COc3cc5c(ccc6nc([C@@H]7CC[C@H](C)N7C(=O)[C@@H](NC(=O)OC)C(C)C)[nH]c65)cc3-4)c[nH]2)N(C(=O)[C@H](NC(=O)OC)c2ccccc2)C1 [Velpatasvir] | > 45.8 µM | > 45.8 µM |
| CCCS(=O)(=O)Nc1ccc(F)c(C(=O)c2c[nH]c3ncc(-c4ccc(Cl)cc4)cc23)c1F [Vemurafenib] | > 45.8 µM | > 45.8 µM |
| CC1(C)CCC(CN2CCN(c3ccc(C(=O)NS(=O)(=O)c4ccc(NCC5CCOCC5)c([N+](=O)[O-])c4)c(Oc4cnc5[nH]ccc5c4)c3)CC2)=C(c2ccc(Cl)cc2)C1 [Venetoclax (ABT-199)] | > 45.8 µM | > 45.8 µM |
| COc1ccc(C(CN(C)C)C2(O)CCCCC2)cc1 (configuration not stated) [Venlafaxine] | > 45.8 µM | > 45.8 µM |
| COc1ccc(C(=O)N2CCN(c3ccc4c(c3)CCC(=O)N4)CC2)cc1OC [Vesnarinone] | > 45.8 µM | > 45.8 µM |
| C=CC(N)CCC(=O)O (configuration not stated) [Vigabatrin] | > 45.8 µM | > 45.8 µM |
| N#Cc1ccc2[nH]cc(CCCCN3CCN(c4ccc5oc(C(N)=O)cc5c4)CC3)c2c1 [Vilazodone Hydrochloride] | > 45.8 µM | > 45.8 µM |
| N#C[C@@H]1CCCN1C(=O)CNC12CC3CC(CC(O)(C3)C1)C2 [Vildagliptin] | > 45.8 µM | > 45.8 µM |
| CCOC(=O)C1=C[C@]2(CC)CCCN3CCc4c(n1c1ccccc41)[C@@H]32 [Vinpocetine] | > 45.8 µM | > 45.8 µM |
| CS(=O)(=O)c1ccc(C(=O)Nc2ccc(Cl)c(-c3ccccn3)c2)c(Cl)c1 [Vismodegib] | > 45.8 µM | > 45.8 µM |
| Cc1ncc(CO)c(CO)c1O [Vitamin B6] | > 45.8 µM | > 45.8 µM |
